In patent US11292792B2, “Tricyclic CRBN ligands and uses thereof” (Kymera Therapeutics, Inc., priority 2018, dated 2022):

Target: His-tagged CRBN-DDB1 complex (Homo sapiens (Human), UniProt Q96SW2)
Experiment: Time-resolved fluorescence resonance energy transfer (TR-FRET) assay, displacement of Cy5-labeled thalidomide
Format: binding
Details: not given
Protocol: Equal volumes of His-tagged CRBN-DDB1 complex (56 nM) was mixed with Eu-cryptate labeled Anti-6HIS-monoclonal antibody (50× dilution from the commercial stock solution, Vender: Cisbio, Cat. #61HI2KLA) in a final buffer containing 20 mM HEPES pH 7.0, 150 mM NaCl, 0.005% Tween-20. […] The mixture were incubated at room temperature for 1 hour. FRET signals were measured on an EnVision plate reader (Perkin Elmer) by exciting at 340 nm and recording emission at both 615 nm as no FRET control and 665 nm as the FRET signals with a 60 microsecond delay. FRET efficiency was calculated as the ratio of fluorescent signals at […]. Quantitative loss of FRET efficiency as a function of compound concentrations was fitted by a four-parameter Logistic Function using GraphPad Prism 7.0 and the IC50 values were reported for each compound.
The compound numbers correspond to the compound numbers in Table 1.

Sequence of His-tagged CRBN-DDB1 complex (Q96SW2 whole entry): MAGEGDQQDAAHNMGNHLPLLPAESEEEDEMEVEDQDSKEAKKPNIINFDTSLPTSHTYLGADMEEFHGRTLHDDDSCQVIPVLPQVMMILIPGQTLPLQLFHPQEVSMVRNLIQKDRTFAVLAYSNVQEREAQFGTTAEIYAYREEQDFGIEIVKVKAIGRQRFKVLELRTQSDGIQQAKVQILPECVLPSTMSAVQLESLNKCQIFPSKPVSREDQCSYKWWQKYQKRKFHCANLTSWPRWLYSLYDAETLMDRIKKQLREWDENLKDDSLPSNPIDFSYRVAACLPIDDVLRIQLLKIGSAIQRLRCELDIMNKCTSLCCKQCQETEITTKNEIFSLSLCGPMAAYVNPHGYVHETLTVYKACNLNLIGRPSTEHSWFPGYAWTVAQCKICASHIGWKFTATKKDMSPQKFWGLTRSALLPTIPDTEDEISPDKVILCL
Sequence of His-tagged CRBN-DDB1 complex (Q16531 whole entry partner): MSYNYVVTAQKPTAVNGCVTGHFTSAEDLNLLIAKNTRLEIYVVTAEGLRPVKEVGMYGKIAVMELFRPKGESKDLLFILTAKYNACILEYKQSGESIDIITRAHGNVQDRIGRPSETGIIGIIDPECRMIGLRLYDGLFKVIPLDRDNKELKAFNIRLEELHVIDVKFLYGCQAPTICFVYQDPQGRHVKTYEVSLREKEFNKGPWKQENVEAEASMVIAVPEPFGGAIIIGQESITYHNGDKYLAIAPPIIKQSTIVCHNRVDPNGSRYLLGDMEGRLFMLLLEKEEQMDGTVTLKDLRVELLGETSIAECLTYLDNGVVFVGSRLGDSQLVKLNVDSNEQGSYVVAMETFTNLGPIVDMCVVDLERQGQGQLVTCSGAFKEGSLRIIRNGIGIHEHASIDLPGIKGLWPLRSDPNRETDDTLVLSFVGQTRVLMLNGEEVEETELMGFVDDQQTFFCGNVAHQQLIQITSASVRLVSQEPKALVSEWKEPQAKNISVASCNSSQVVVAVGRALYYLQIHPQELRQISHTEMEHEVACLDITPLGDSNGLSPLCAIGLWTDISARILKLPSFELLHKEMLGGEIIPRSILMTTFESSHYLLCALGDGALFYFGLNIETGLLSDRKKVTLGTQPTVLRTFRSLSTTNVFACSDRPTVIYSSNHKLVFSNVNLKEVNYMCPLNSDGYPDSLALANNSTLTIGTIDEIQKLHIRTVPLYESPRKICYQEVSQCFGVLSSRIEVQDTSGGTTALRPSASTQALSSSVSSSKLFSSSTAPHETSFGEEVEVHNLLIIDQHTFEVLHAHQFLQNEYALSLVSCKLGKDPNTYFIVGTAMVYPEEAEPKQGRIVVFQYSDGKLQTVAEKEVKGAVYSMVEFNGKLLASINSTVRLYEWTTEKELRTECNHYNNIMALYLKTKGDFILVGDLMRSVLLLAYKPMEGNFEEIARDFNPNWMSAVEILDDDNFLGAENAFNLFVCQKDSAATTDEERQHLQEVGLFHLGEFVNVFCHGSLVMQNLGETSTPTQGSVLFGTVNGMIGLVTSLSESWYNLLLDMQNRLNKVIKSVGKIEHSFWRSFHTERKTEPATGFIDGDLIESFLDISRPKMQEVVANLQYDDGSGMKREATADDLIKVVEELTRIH

SMILES | IC50
O=C1CCC(N2C(=O)CN=C(c3ccccc3)c3ccccc32)C(=O)N1 (stereo not shown) [I-41] | 30 to 100 µM

Same assay, conditions: read-out: CRBN HTRF IC50

SMILES | IC50
CNc1ccc2c3ccccc3n(C3CCC(=O)NC3=O)c2n1 (stereo not shown) [I-79, 3-(2-(methylamino)-9H-pyrido[2,3-b]indol-9-yl)piperidine-2,6-dione] | < 10 µM
O=C1CCC(n2c3ccccc3c3cncnc32)C(=O)N1 (stereo not shown) [I-67] | 10 to 30 µM
O=C1CCC(n2c3ccc(Br)cc3c3ccc(F)nc32)C(=O)N1 (stereo not shown) [I-92, 3-(6-bromo-2-fluoro-9H-pyrido[2,3-b]indol-9-yl)piperidine-2,6-dione] | < 10 µM
Nc1ccc2c3ccccc3n(C3CCC(=O)NC3=O)c2n1 (stereo not shown) [I-78] | < 10 µM
CC(C)(C)OC(=O)NCCOCCOCCCc1cccc2c1c1cccnc1n2C1CCC(=O)NC1=O (stereo not shown) [I-60] | < 10 µM
CC(C)(C)OC(=O)NCCOCCOCC#Cc1cccc2c1c1cccnc1n2C1CCC(=O)NC1=O (stereo not shown) [I-61] | < 10 µM
CCNC(=O)Nc1ccc2c(c1)c1cccnc1n2C1CCC(=O)NC1=O (stereo not shown) [I-9, 1-(9-(2,6-Dioxopiperidin-3-yl)-9H-pyrido[2,3-b]indol-6-yl)-3-ethylurea] | < 10 µM
NCCOCCOCCCc1cnc2c(c1)c1ccccc1n2C1CCC(=O)NC1=O (stereo not shown) [I-59, 3-(3-(3-(2-(2-aminoethoxy)ethoxy)propyl)-9H-pyrido[2,3-b]indol-9-yl)piperidine-2,6-dione] | < 10 µM
CC(C)(C)OC(=O)NCCOCCOC(=O)NCc1ccc2c(c1)c1cccnc1n2C1CCC(=O)NC1=O (stereo not shown) [I-38, 2-(2-((tert-butoxycarbonyl)amino)ethoxy)ethyl ((9-(2,6-dioxopiperidin-3-yl)-9H-pyrido[2,3-b]indol-6-yl)methyl)carbamate] | < 10 µM
CN(C)c1ccc2c(c1)c1cccnc1n2C1CCC(=O)NC1=O (stereo not shown) [I-28, 3-(6-(Dimethylamino)-9H-pyrido[2,3-b]indol-9-yl)piperidine-2,6-dione] | < 10 µM
O=C1CCC(n2c3ccccc3c3ccnc(O)c32)C(=O)N1 (stereo not shown) [I-105] | 10 to 30 µM
O=C1CCC(n2c3cccc(C#CCOCCOCCOCc4ccccc4)c3c3cccnc32)C(=O)N1 (stereo not shown) [I-52] | < 10 µM
O=C1CCC(n2c3ccccc3n3ccnc23)C(=O)N1 (stereo not shown) [I-99] | 30 to 100 µM
CC(C)(C)OC(=O)NCCOCCCc1ccc2c(c1)c1cccnc1n2C1CCC(=O)NC1=O (stereo not shown) [I-34, tert-butyl (2-(3-(9-(2,6-dioxopiperidin-3-yl)-9H-pyrido[2,3-b]indol-6-yl)propoxy)ethyl)carbamate] | < 10 µM
CC(C)(C)OC(=O)NCCOCCOCC#Cc1ccc2c3ccccc3n(C3CCC(=O)NC3=O)c2n1 (stereo not shown) [I-74] | 10 to 30 µM
O=C1CCC(n2c3cnccc3c3cccnc32)C(=O)N1 (stereo not shown) [I-69, 3-(9H-pyrrolo[2,3-b:5,4-c′]dipyridin-9-yl)piperidine-2,6-dione] | > 100 µM
CC(C)(C)OC(=O)NC1CCN(CCc2ccc3c(c2)c2cccnc2n3C2CCC(=O)NC2=O)CC1 (stereo not shown) [I-71, tert-butyl (1-(2-(9-(2,6-dioxopiperidin-3-yl)-9H-pyrido[2,3-b]indol-6-yl)ethyl)piperidin-4-yl)carbamate] | < 10 µM
O=C1CCC(n2c3cc(Cl)ccc3c3cccnc32)C(=O)N1 (stereo not shown) [I-106, 3-(7-chloro-9H-pyrido[2,3-b]indol-9-yl)piperidine-2,6-dione] | 10 to 30 µM
O=C1CCC(n2c3cccc(Br)c3c3cccnc32)C(=O)N1 (stereo not shown) [I-30] | < 10 µM
O=C1CCC(n2c3ccccc3c3cc(CCCOCCOCCO)cnc32)C(=O)N1 (stereo not shown) [I-54, 3-(3-(3-(2-(2-hydroxyethoxy)ethoxy)propyl)-9H-pyrido[2,3-b]indol-9-yl)piperidine-2,6-dione] | 10 to 30 µM
O=C1CCC(n2c3ccc(Br)cc3c3ccsc32)C(=O)N1 (stereo not shown) [I-88] | < 10 µM
